According to PMC4556830, “The Effect of MGCD0103 on CYP450 Isoforms Activity of Rats by Cocktail Method” (BioMed Research International, 2015):

Assay: Pharmacokinetics of six cocktail probe drugs in rat plasma (UPLC-MS/MS) after 7-day MGCD0103 or saline
Details: for Cmax / half-life: Sprague-Dawley, rat, po; for Cmax: C max; for difference for AUC, t 1/2 between high dosage group and control group: p > 0.05
Procedure: The compounds were analyzed by a UPLC-MS/MS with ACQUITY I-Class UPLC and a XEVO TQD triple quadrupole mass spectrometer that was equipped with an electrospray ionization (ESI) interface (Waters Corp., Milford, MA, USA). The UPLC system included a Sample Manager with Flow-Through Needle (SM-FTN) and a Binary Solvent Manager (BSM). Data acquisition and instrument control were performed on the MassLynx 4.1 software (Waters Corp., Milford, MA, USA).
The initial mobile phase consisted of 0.1% formic acid and acetonitrile with gradient elution at a flow rate of 0.4 mL/min and an injection volume of 2 μL. […] The total run time of the analysis was 3 min.
The mass spectrometric detection was performed in a positive mode. Nitrogen was used as the cone gas (50 L/h) and desolvation gas (1000 L/h). The mass conditions were set as follows: source temperature 150°C, capillary voltage 2.5 kV, and desolvation temperature 500°C.
Forty rats (220 ± 20 g) were randomly divided into four different dosages of MGCD0103 groups (Low group, Medium group, High group, and control group with 10 rats in each group). MGCD0103 was dissolved in corn oil as suspension at three different concentrations (20, 40, and 80 mg/mL). Three different MGCD0103 groups (Low group, Medium group, and High group) were respectively given MGCD0103 20, 40, and 80 mg/kg one time by intragastric administration at every morning and last for 7 days. Control group were given saline by same administration method.
100 μL of plasma was obtained from blood sample after centrifugation at 4000 g for 10 min. In a 1.5 mL centrifuge tube, 200 μL of acetonitrile (containing 50 ng/mL IS) was added into 100 μL of collected plasma sample. […] Then supernatant (2 μL) was injected into the UPLC-MS/MS system for analysis.
Concentration of plasma probe drugs versus time was analyzed by Version 3.0 Data Analysis System (Wenzhou Medical University, China). The main pharmacokinetic parameters of the MGCD0103 group and control group were analyzed by SPSS l8.0 statistical software.

[1] = Control group: saline i.g. 7 days (no MGCD0103), then probe 10 mg/kg (tolbutamide 1 mg/kg) i.g., rat plasma, mean ± SD, n = 10
[2] = High group: MGCD0103 80 mg/kg i.g. 7 days, then probe 10 mg/kg (tolbutamide 1 mg/kg) i.g., rat plasma, mean ± SD, n = 10
[3] = Low group: MGCD0103 20 mg/kg i.g. 7 days, then probe 10 mg/kg (tolbutamide 1 mg/kg) i.g., rat plasma, mean ± SD, n = 10
[4] = Medium group: MGCD0103 40 mg/kg i.g. 7 days, then probe 10 mg/kg (tolbutamide 1 mg/kg) i.g., rat plasma, mean ± SD, n = 10
[5] = high dosage MGCD0103 group vs control
[6] = high dosage MGCD0103 group vs control, p < 0.05

| Compound | AUC(0–t) [1] | AUC(0–∞) [1] | AUC(0–t) [2] | AUC(0–∞) [2] | AUC(0–t) [3] | AUC(0–∞) [3] | AUC(0–t) [4] | AUC(0–∞) [4] | Cmax (in vivo, 10 mg/kg) | half-life (in vivo, 10 mg/kg, t 1/2) | difference for AUC, t 1/2 between high dosage group and control group [5] | half-life (in vivo, t 1/2) | CL [1] | V [1] | CL [2] | V [2] | CL [3] | V [3] | CL [4] | V [4] | further results |
| --- | --- | --- | --- | --- | --- | --- | --- | --- | --- | --- | --- | --- | --- | --- | --- | --- | --- | --- | --- | --- | --- |
| CCOc1ccc(NC(C)=O)cc1 [Phenacetin] | 3831.2 ± 2840.9 ng/mL∗h | 3833.6 ± 2839.3 ng/mL∗h | 2869.8 ± 3189.9 ng/mL∗h | 2871.9 ± 3189.0 ng/mL∗h | 2973.6 ± 1807.0 ng/mL∗h | 2975.9 ± 1806.6 ng/mL∗h | 2910.1 ± 1758.5 ng/mL∗h | 2918.2 ± 1751.4 ng/mL∗h | 2.88 ± 1.63 µg/mL | 0.6 ± 0.4 h | no significant difference |  |  |  |  |  |  |  |  |  |  |
| CC(NC(C)(C)C)C(=O)c1cccc(Cl)c1 (stereo not shown) [Bupropion] | 144.8 ± 94.1 ng/mL∗h | 146.7 ± 95.1 ng/mL∗h | 218.2 ± 460.8 ng/mL∗h | 235.2 ± 502.8 ng/mL∗h | 282.5 ± 403.2 ng/mL∗h | 324.2 ± 506.3 ng/mL∗h | 120.4 ± 45.1 ng/mL∗h | 122.3 ± 45.2 ng/mL∗h | 0.157 ± 0.179 µg/mL | 0.8 ± 0.4 h | no significant difference |  |  |  |  |  |  |  |  |  |  |
| COCCc1ccc(OCC(O)CNC(C)C)cc1 (stereo not shown) [Metoprolol] | 709.2 ± 255.8 ng/mL∗h | 724.2 ± 255.8 ng/mL∗h | 1031.8 ± 1261.2 ng/mL∗h | 1046.4 ± 1258.4 ng/mL∗h | 698.1 ± 348.6 ng/mL∗h | 703.8 ± 351.6 ng/mL∗h | 836.1 ± 499.8 ng/mL∗h | 843.7 ± 498.4 ng/mL∗h |  |  | no significant difference | 0.8 ± 0.1 h |  |  |  |  |  |  |  |  |  |
| C[C@]12CC[C@H]3[C@@H](CCC4=CC(=O)CC[C@@]43C)[C@@H]1CC[C@@H]2O [Testosterone] | 85.9 ± 40.6 ng/mL∗h | 89.9 ± 43.9 ng/mL∗h | 490.7 ± 1044.2 ng/mL∗h | 524.5 ± 1042.4 ng/mL∗h | 404.5 ± 908.2 ng/mL∗h | 417.2 ± 927.8 ng/mL∗h | 81.3 ± 28.8 ng/mL∗h | 106.5 ± 45.1 ng/mL∗h |  |  | no significant difference |  | 143.8 ± 89.6 L/h/kg | 161.1 ± 82.2 L/kg | 64.9 ± 33.4^∗ L/h/kg | 254.0 ± 291.0 L/kg | 104.8 ± 49.0 L/h/kg | 259.1 ± 168.6 L/kg | 109.0 ± 43.8 L/h/kg | 253.2 ± 204.3 L/kg | Cmax (in vivo, 10 mg/kg, Control group: saline i.g. 7 days (no MGCD0103), then probe 10 mg/kg (tolbutamide 1 mg/kg) i.g., rat plasma, mean ± SD, n = 10): 0.0881 ± 0.0542 µg/mL; Cmax (in vivo, 10 mg/kg, High group: MGCD0103 80 mg/kg i.g. 7 days, then probe 10 mg/kg (tolbutamide 1 mg/kg) i.g., rat plasma, mean ± SD, n = 10): 0.462 ± 1.03 µg/mL; Cmax (in vivo, 10 mg/kg, Low group: MGCD0103 20 mg/kg i.g. 7 days, then probe 10 mg/kg (tolbutamide 1 mg/kg) i.g., rat plasma, mean ± SD, n = 10): 0.302 ± 0.631 µg/mL; Cmax (in vivo, 10 mg/kg, Medium group: MGCD0103 40 mg/kg i.g. 7 days, then probe 10 mg/kg (tolbutamide 1 mg/kg) i.g., rat plasma, mean ± SD, n = 10): 0.0932 ± 0.0753 µg/mL; half-life (in vivo, 10 mg/kg, t 1/2, Control group: saline i.g. 7 days (no MGCD0103), then probe 10 mg/kg (tolbutamide 1 mg/kg) i.g., rat plasma, mean ± SD, n = 10): 1 ± 0.6 h; half-life (in vivo, 10 mg/kg, t 1/2, High group: MGCD0103 80 mg/kg i.g. 7 days, then probe 10 mg/kg (tolbutamide 1 mg/kg) i.g., rat plasma, mean ± SD, n = 10): 4 ± 7.1 h; half-life (in vivo, 10 mg/kg, t 1/2, Low group: MGCD0103 20 mg/kg i.g. 7 days, then probe 10 mg/kg (tolbutamide 1 mg/kg) i.g., rat plasma, mean ± SD, n = 10): 1.7 ± 0.8 h; half-life (in vivo, 10 mg/kg, t 1/2, Medium group: MGCD0103 40 mg/kg i.g. 7 days, then probe 10 mg/kg (tolbutamide 1 mg/kg) i.g., rat plasma, mean ± SD, n = 10): 2.2 ± 2.4 h; change of CL versus control group [6]: shortened |
| CCCCNC(=O)NS(=O)(=O)c1ccc(C)cc1 [Tolbutamide] | 88701.2 ± 19274.8 ng/mL∗h | 89852.0 ± 19168.1 ng/mL∗h | 64052.9 ± 15988.6^∗ ng/mL∗h | 64353.2 ± 15998.9^∗ ng/mL∗h | 82724.8 ± 13265.9 ng/mL∗h | 83176.9 ± 13264.2 ng/mL∗h | 72448.6 ± 14850.4 ng/mL∗h | 72761.4 ± 14754.7 ng/mL∗h |  |  |  | 5.2 ± 1.2 h |  | 0.088 ± 0.019 L/kg |  | 0.099 ± 0.020 L/kg |  | 0.090 ± 0.014 L/kg |  | 0.093 ± 0.010 L/kg | change of AUC(0–t) versus control group [6]: decreased; change of CL versus control group [6]: increased |
| COc1ccc2[nH]c([S+]([O-])Cc3ncc(C)c(OC)c3C)nc2c1 (stereo not shown) [Omeprazole] | 503.8 ± 199.4 ng/mL∗h | 528.0 ± 190.0 ng/mL∗h | 676.8 ± 1111.6 ng/mL∗h | 731.8 ± 1098.8 ng/mL∗h | 700.1 ± 910.2 ng/mL∗h | 704.9 ± 909.5 ng/mL∗h | 526.1 ± 251.2 ng/mL∗h | 539.1 ± 252.5 ng/mL∗h | 0.556 ± 0.646 µg/mL |  | no significant difference |  | 21.2 ± 7.6 L/h/kg |  | 31.8 ± 19.0 L/h/kg |  | 29.1 ± 16.6 L/h/kg |  | 22.3 ± 10.0 L/h/kg |  | half-life (plasma, 10 mg/kg, t 1/2, Control group: saline i.g. 7 days (no MGCD0103), then probe 10 mg/kg (tolbutamide 1 mg/kg) i.g., rat plasma, mean ± SD, n = 10): 1.4 ± 1 h |
